Assays:
[1] = test system: insulin receptor signaling in muscle tissue; test: Insulin signaling in muscle of lipid-infused mice (immunoblotting); type: in vivo; conditions: fatty acid:palmitoleate infusion 3.3 μl/min
Source text: FIGS. 7A-7G show data on the regulation of insulin signaling and glucose metabolism by palmitoleate. FIG. 7A is the basal and insulin-stimulated phosphorylation of insulin receptor (IR), insulin receptor substrate-1 (IRS-1) and -2 (IRS-2) and AKT in liver of mice infused with vehicle (Veh), TG:palmitoleate (C16:1n7) or TG:palmitate (C16). Representative blots are shown and quantifications on the right are averaged results of three mice in each treatment group. […] Representative blots are shown and quantifications on the right are averaged results of three mice in each treatment group.
The left panel presents the insulin-stimulated phosphorylation of insulin receptor and AKT in liver of mice infused with vehicle or palmitoleate. […] Mice were infused with vehicle or palmitoleate at 3.3 μl/min for six hrs, and insulin (1 U/Kg) was injected through the infusing tubing. Three minutes after insulin injection, tissues were collected and immunoblotting analyses were performed.
The present invention also provides for the regulation of insulin action by increased circulating palmitoleate. To study whether palmitoleate regulates systemic metabolic responses, lipid infusions were administered in conscious mice. Lipid infusion has been used widely to investigate the relationship between plasma FFAs and insulin resistance, but almost all studies using this protocol utilized preparations of natural lipid products containing a variety of fatty acids. Kim et al., 114 J. Clin. Invest. 823-27 (2004); Kim et al., 277 J. Biol. Chem. 32915-22 (2002); Yu et al., 277 J. Biol. Chem. 50230-36 (2002). […]
(§1) Samples of 200 μl serum were collected using heparin-coated glass tubes and spun at 13,000 g in a microcentrifuge to separate the plasma. […] Tissue protein lysates was separated with SDS-PAGE gels and phosphorylated or total proteins were detected with the following antibodies: phospho AKT Serine 473, AKT, insulin receptor, phospho-tyrosine (Santa Cruz Biotech.); IRS-1 and IRS-2 (Upstate); phospho-GSK and GSK (Cell Signaling Tech.); phospho-insulin receptor from (Calbiocbem). […]

[2] = test system: AKT phosphorylation in C2C12 myotubes; test: Insulin-stimulated AKT phosphorylation in C2C12 myotubes; type: cell-based
Experimental: Values of bar plot were determined by phospho-AKT ELISA and corresponding immunoblotting results are shown as Insets.
The bottom panel is the corresponding immunoblotting of total and phosphorylated AKT in cells treated with pooled lipids.
To investigate whether plasma lipids also played a role in regulating muscle insulin action, differentiated C2C12 myotubes were treated with lipid extracts from each genotype and the insulin-stimulated AKT phosphorylation determined using an ELISA system.
The effect of C16:1n7-palmitoleate on muscle insulin signaling was explored by pre-treating C2C12 myotubes with either palmitate or palmitoleate overnight and then stimulating the cells with insulin. […] Conversely, C16:1n7-palmitoleate had little effect on its own in this in vitro setting (FIG. 3G). […]
as §1

C2C12 cells = test: Glucose uptake in C2C12 myotubes; type: cell-based
Source text: FIG. 3H is the glucose uptake in C2C12 myotubes treated with insulin or palmitoleate. Top panel is immunoblotting of C2C12 cell lysates treated with insulin or palmitoleate using anti-Glut1 or Glut4 antibodies. *: p<0.05.
The effect of C16:1n7-palmitoleate on muscle insulin signaling was explored by pre-treating C2C12 myotubes with either palmitate or palmitoleate overnight and then stimulating the cells with insulin. […] Conversely, C16:1n7-palmitoleate had little effect on its own in this in vitro setting (FIG. 3G). When cells were co-treated with both palmitate and palmitoleate, however, palmitoleate rescued the palmitate-induced reduction in insulin-stimulated AKT phosphorylation. […] The mechanism of this increase is not, apparently, associated with alterations in the absolute levels of Glut1 and Glut4 proteins (FIG. 3H).

[3] = test system: MCP1, TNFalpha and IL6 expression in adipocyte fraction; test: Cytokine expression in adipocyte fraction of epididymal fat pads; type: cell-based, mice; conditions: 500 μM for 2 hrs, compared to palmitate
Experimental: FIGS. 16A and 16B present cytokine expression in adipocyte and stromal vascular fractions treated with fatty acids. Epidydamal fat pads were dissected from WT mice and separated into adioycte and stromal vascular fractions as described in Experimental Procedures. Each fraction was treated with palmitate or palmitoleate at 500 μM for 2 hrs. Gene expression was determined with quantitative real-time PCR.
Obesity is associated with low-grade inflammation and increased inflammatory activities in liver and adipose tissues contribute to the development of systemic insulin resistance. Hotamisligil, 444 Nature 860-67 (2006). The effect of plasma lipids on adipose tissue inflammatory responses was explored using explants of adipose tissue treated with lipids from WT or FABP^−/− mice. […] Because adipose tissue contains multiple cell populations in addition to fat cells, adipose tissue was separated into adipocytes and stromal vascular fractions, and each fraction treated with either palmitate or palmitoleate.

CCCCCC/C=C\CCCCCCCC(=O)O [palmitoleate, C16:1n7-palmitoleate]
muscle insulin signaling (insulin receptor and AKT activation) [1]: enhanced
insulin-stimulated AKT phosphorylation ([2]; C2C12 myotubes pre-treated with fatty acid overnight, then insulin): little effect
palmitate-induced reduction in insulin-stimulated AKT phosphorylation ([2]; co-treated with both palmitate and palmitoleate): rescued
glucose uptake (C2C12 cells): stimulated glucose uptake into C2C12 cells to a level similar to insulin
cytokine expression in adipocyte fractions [3]: suppressed

Source: patent US9239334B2, “Fatty acid C16: 1N7-palmitoleate a lipokine and biomarker for metabolic status” (PRESIDENT AND FELLOWS OF HARVARD COLLEGE, priority 2008, dated 2016)
